Data on 9 compounds can be found in ChEMBL document CHEMBL1201862, “PubChem BioAssay data set” (2004).

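Cultured in 96-well plates, cells were exposed to test compound for 48 hours across five concentrations. GI50 is the concentration that inhibits growth by half.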 Calls of active or inactive are those of the source. Rule as the data show it: active = GI50 up to about 1.1 µM and inactive = higher. Some results are limits rather than exact numbers.

Some test systems named below: SR; SN12C; HOP-62; HCC 2998; SK-MEL-28; MOLT-4; SF-268; HCT-15; UACC-257; OVCAR-8; OVCAR-5; SF-539; SK-OV-3; CCRF-CEM; LOX IMVI; T47D; CAKI-1; Hs-578T; HL-60.
Common to all, as to test: NCI tumour cell line growth inhibition, 48 h

For `N#CC1=C2SCCN2C(=O)C(C#N)C12CCCCC2` (centres undefined), the GI50 with SR, with SN12C, in the assay on HOP-62, with HCC 2998, in the assay on SK-MEL-28 and in the assay with MOLT-4 was > 100 µM (inactive) each time. In addition, the GI50 in the assay on SF-268 is > 100 µM (inactive); in the assay on HCT-15, greater than 100 µM; in the assay with UACC-257, > 100 µM (inactive); with OVCAR-8, > 100 µM (inactive); in the assay on OVCAR-5 it was > 100 µM (inactive); in the assay on SF-539 it was > 100 µM (inactive). Further, the GI50 in the assay with SK-OV-3, with CCRF-CEM, in the assay with LOX IMVI, in the assay on T47D and in the assay with CAKI-1 was > 100 µM (inactive) throughout.
As to `N#Cc1ccc(C2NN=CC23C(=O)c2ccccc2OC3c2ccccc2)cc1` (centres undefined), the GI50 was 24 µM (inactive) in the assay with SR; 41.1 µM (inactive) with SN12C; 54.6 µM (inactive) with HOP-62; 35.7 µM (inactive) in the assay on HCC 2998; 51.1 µM (inactive) in the assay with SK-MEL-28; 22.3 µM (inactive) in the assay on MOLT-4. For the same compound, the GI50 with SF-268 is 52.4 µM (inactive); in the assay with HCT-15, 25.4 µM; in the assay with UACC-257, 28 µM (inactive); with OVCAR-8, 42.4 µM (inactive); in the assay on OVCAR-5 it was 45.7 µM (inactive); in the assay with Hs-578T, 30.5 µM (inactive). In addition, the GI50 in the assay on SF-539 was 42.2 µM (inactive); with HL-60, 59.7 µM (inactive); with SK-OV-3 it was 31.8 µM (inactive); in the assay with CCRF-CEM it was 32.6 µM (inactive); in the assay on LOX IMVI, 30.9 µM (inactive); with CAKI-1, 34 µM (inactive).
With `CC(C)CC1C(=O)OC(C)(C)OC1=O`, the GI50 with SN12C, in the assay on HOP-62, in the assay with HCC 2998, with SK-MEL-28, in the assay with MOLT-4 and with SF-268 was > 100 µM (inactive) throughout. In addition, the GI50 with HCT-15 is greater than 100 µM; with UACC-257 it was > 100 µM (inactive); in the assay with OVCAR-8 it was > 100 µM (inactive); in the assay with OVCAR-5 it was > 100 µM (inactive); in the assay on Hs-578T it was > 100 µM (inactive); in the assay on SF-539, > 100 µM (inactive). Besides, the GI50 in the assay with SK-OV-3, with CCRF-CEM, in the assay on LOX IMVI, in the assay on T47D and with CAKI-1 was > 100 µM (inactive) throughout.
As for `COc1ccc(Cc2nc3cc([N+](=O)[O-])ccc3n2C[C@@H]2CCCN3CCCCC23)cc1` (some centres undefined), the GI50 in the assay with HOP-62 was 19.3 µM (inactive); in the assay on HCC 2998, 12.6 µM (inactive); with SK-MEL-28, 17.7 µM (inactive); in the assay with MOLT-4, 18.6 µM (inactive); in the assay with HCT-15, 23.4 µM; in the assay with UACC-257, 15.8 µM (inactive). Besides, the GI50 in the assay on OVCAR-8 was 45.7 µM (inactive); with OVCAR-5, 29.3 µM (inactive); in the assay on HL-60, 4.01 µM (inactive); in the assay on SK-OV-3, 20.2 µM (inactive); in the assay with CCRF-CEM it was 11.2 µM (inactive); in the assay on LOX IMVI it was 16.7 µM (inactive). In addition, the GI50 in the assay on T47D was 33.1 µM (inactive); in the assay with CAKI-1, 19.3 µM (inactive).
For the compound `COC(=O)C(/C(=N\O)C(=O)Nc1cccc(Cl)c1C)c1cnc2ccccc2n1` (centres undefined), the GI50 with SR, with SN12C, in the assay on HOP-62, in the assay on HCC 2998, with SK-MEL-28 and with MOLT-4 was > 100 µM (inactive) each time. The GI50 is > 100 µM (inactive) in the assay with SF-268; greater than 100 µM in the assay on HCT-15; > 100 µM (inactive) in the assay with UACC-257; > 100 µM (inactive) in the assay on OVCAR-8; > 100 µM (inactive) in the assay on OVCAR-5; > 100 µM (inactive) in the assay on SF-539. In addition, the GI50 in the assay with SK-OV-3, in the assay on CCRF-CEM, in the assay with LOX IMVI, in the assay with T47D and in the assay with CAKI-1 was > 100 µM (inactive) in each case.
As for `Cc1ccsc1/C=N/NC1=NCCN1`, the GI50 with SN12C, in the assay on HOP-62, with HCC 2998, with SK-MEL-28, in the assay on MOLT-4 and in the assay with SF-268 was > 100 µM (inactive) throughout. The GI50 in the assay on HCT-15 is greater than 100 µM; with UACC-257, > 100 µM (inactive); with OVCAR-8 it was > 100 µM (inactive); with OVCAR-5, > 100 µM (inactive); in the assay with Hs-578T, > 100 µM (inactive); in the assay with SK-OV-3, > 100 µM (inactive). Besides, the GI50 in the assay on CCRF-CEM, in the assay with LOX IMVI, in the assay on T47D and with CAKI-1 was > 100 µM (inactive) in each case.
Turning to `CCCCc1ccc(Nc2cc(=O)n(C)c(=O)[nH]2)cc1`, the GI50 in the assay with SN12C is > 100 µM (inactive); with HOP-62, > 100 µM (inactive); with HCC 2998, > 100 µM (inactive); in the assay on SK-MEL-28 it was > 100 µM (inactive); in the assay with SF-268 it was 64.4 µM (inactive); in the assay with HCT-15, 93.1 µM. In addition, the GI50 is > 100 µM (inactive) in the assay with UACC-257; 57 µM (inactive) in the assay with OVCAR-8; > 100 µM (inactive) in the assay with OVCAR-5; > 100 µM (inactive) in the assay with Hs-578T; 84.3 µM (inactive) in the assay on SF-539; > 100 µM (inactive) in the assay on SK-OV-3. Besides, the GI50 was 39.8 µM (inactive) in the assay on LOX IMVI, > 100 µM (inactive) in the assay on T47D and > 100 µM (inactive) in the assay with CAKI-1.
Take `Cc1ccc2nc(CN3CCCCC3)cc(=O)n2c1`: the GI50 in the assay with SR, in the assay with SN12C, in the assay on HOP-62, in the assay on HCC 2998, with SK-MEL-28 and with MOLT-4 was > 100 µM (inactive) each time. Besides, the GI50 in the assay on SF-268 is > 100 µM (inactive); in the assay with HCT-15, greater than 100 µM; with UACC-257 it was > 100 µM (inactive); with OVCAR-8, > 100 µM (inactive); with OVCAR-5, > 100 µM (inactive); in the assay on Hs-578T, > 100 µM (inactive). In addition, the GI50 with SF-539, with HL-60, in the assay on SK-OV-3, with CCRF-CEM, in the assay with LOX IMVI and in the assay on CAKI-1 was > 100 µM (inactive) each time.
Regarding `CCC1(C)C=Cc2c(cc(O)c3c(=O)c4ccccc4n(C)c23)O1` (centres undefined), the GI50 in the assay with SN12C, with HOP-62, with HCC 2998, in the assay on SK-MEL-28, in the assay with MOLT-4 and in the assay with SF-268 was > 10 µM (inactive) in each case. The GI50 in the assay on HCT-15 was greater than 10 µM; with UACC-257 it was > 10 µM (inactive); in the assay with OVCAR-8, > 10 µM (inactive); in the assay on OVCAR-5, > 10 µM (inactive); with Hs-578T, > 10 µM (inactive); with SF-539, > 10 µM (inactive). In addition, the GI50 is > 10 µM (inactive) in the assay on SK-OV-3; > 10 µM (inactive) with CCRF-CEM; > 10 µM (inactive) in the assay with LOX IMVI; > 10 µM (inactive) with T47D; 3.26 µM (inactive) with CAKI-1.
